{
  "source": "PubChem BioAssay AID180",
  "about": "(DTP/NCI, 2004)",
  "tested_on": "BDF1 mice, Adenocarcinoma 755 s.c., tumor weight T/C",
  "experiment": "NCI In Vivo Anticancer Drug Screen. Data for tumor model Adenocarcinoma 755 (subcutaneous) in B6D2F1 (BDF1) mice",
  "conditions": "endpoint: mean tumor weight, higher = larger tumour",
  "outline": "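Tumor-bearing mice receive test compound while controls get vehicle alone. Antitumor effect is scored from survival or tumor dimensions as a T/C quotient.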",
  "key": {"[1]": {"conditions": "dose: 225.0 mg/kg/injection, schedule: Q01DX011 (ip), vehicle: carboxymethylcellulose (CMC)"}, "[2]": {"conditions": "dose: 15.0 mg/kg/injection, schedule: Q01DX011 (ip), vehicle: methylcellulose (MC)"}, "[3]": {"conditions": "dose: 125.0 mg/kg/injection, schedule: Q01DX011 (ip), vehicle: methylcellulose (MC)"}, "[4]": {"conditions": "dose: 250.0 mg/kg/injection, schedule: Q01DX011 (ip), vehicle: methylcellulose (MC)"}, "[5]": {"conditions": "dose: 25.0 mg/kg/injection, schedule: Q01DX011 (ip), vehicle: methylcellulose (MC)"}},
  "note": "“And” between values parts separate entries of the source, which are not always exact repeats. Equal values may be shown once.",
  "data": [
    {"molecule": "CS(=O)(=O)OCCC(=O)Nc1ccc(NC(=O)CCOS(C)(=O)=O)cc1", "values": [
      {"measurement": "T/C", "setting": "dose: 46.0 mg/kg/injection, schedule: Q01DX011 (ip), vehicle: methylcellulose (MC)", "result": "117 % of control"},
      {"measurement": "T/C", "setting": "dose: 91.0 mg/kg/injection, schedule: Q01DX011 (ip), vehicle: methylcellulose (MC)", "result": "111 % of control"},
      {"measurement": "T/C", "setting": "dose: 183.0 mg/kg/injection, schedule: Q01DX011 (ip), vehicle: methylcellulose (MC)", "result": "85 % of control"},
      {"measurement": "T/C", "setting": "dose: 375.0 mg/kg/injection, schedule: Q01DX011 (ip), vehicle: methylcellulose (MC)", "result": "117 % of control"}
    ]},
    {"molecule": "CCOC(=O)CN=NNc1nc[nH]c1C(N)=O", "values": [
      {"measurement": "T/C", "setting": "dose: 56.0 mg/kg/injection, schedule: Q01DX011 (ip), vehicle: carboxymethylcellulose (CMC)", "result": "58 % of control"},
      {"measurement": "T/C", "setting": "dose: 112.0 mg/kg/injection, schedule: Q01DX011 (ip), vehicle: carboxymethylcellulose (CMC)", "result": "106 % of control"},
      {"measurement": "T/C", "setting": "dose: 175.0 mg/kg/injection, schedule: Q01DX011 (ip), vehicle: carboxymethylcellulose (CMC)", "result": "81 % of control"},
      {"measurement": "T/C", "setting": "[1]", "result": "27 % of control"},
      {"measurement": "T/C", "setting": "dose: 350.0 mg/kg/injection, schedule: Q01DX011 (ip), vehicle: carboxymethylcellulose (CMC)", "result": "58 % of control"}
    ]},
    {"molecule": "C[C@]12CC[C@@H]3c4ccc(OC(=O)c5ccccc5)cc4CC[C@H]3[C@@H]1CC[C@@H]2O", "values": [
      {"measurement": "T/C", "setting": "dose: 77.31 mg/kg/injection, schedule: Q01DX011 (sc), vehicle: steriod suspending solution", "result": "81 % of control"},
      {"measurement": "T/C", "setting": "dose: 125.0 mg/kg/injection, schedule: Q01DX011 (sc), vehicle: steriod suspending solution", "result": "66 % of control"},
      {"measurement": "T/C", "setting": "dose: 154.63 mg/kg/injection, schedule: Q01DX011 (sc), vehicle: steriod suspending solution", "result": "94 % of control"},
      {"measurement": "T/C", "setting": "dose: 250.0 mg/kg/injection, schedule: Q01DX011 (sc), vehicle: steriod suspending solution", "result": "87 % of control"},
      {"measurement": "T/C", "setting": "dose: 309.25 mg/kg/injection, schedule: Q01DX011 (sc), vehicle: steriod suspending solution", "result": "72 % of control"},
      {"measurement": "T/C", "setting": "dose: 500.0 mg/kg/injection, schedule: Q01DX011 (sc), vehicle: steriod suspending solution", "result": "84 % of control"},
      {"measurement": "T/C", "setting": "dose: 618.5 mg/kg/injection, schedule: Q01DX011 (sc), vehicle: steriod suspending solution", "result": "91 % of control"},
      {"measurement": "T/C", "setting": "dose: 1000.0 mg/kg/injection, schedule: Q01DX011 (sc), vehicle: steriod suspending solution", "result": "54 % of control"}
    ]},
    {"molecule": "CN1CCC(CN2c3ccccc3Sc3ccccc32)CC1", "values": [
      {"measurement": "T/C", "setting": "dose: 120.0 mg/kg/injection, schedule: Q01DX011 (ip), vehicle: methylcellulose (MC)", "result": "23 % of control"}
    ]},
    {"molecule": "Cc1cnc(SCc2ccccc2)[nH]c1=O", "values": [
      {"measurement": "T/C", "setting": "[2]", "result": "103 % of control"},
      {"measurement": "T/C", "setting": "dose: 31.0 mg/kg/injection, schedule: Q01DX011 (ip), vehicle: methylcellulose (MC)", "result": "104 % of control"},
      {"measurement": "T/C", "setting": "[3]", "result": "92 % of control"},
      {"measurement": "T/C", "setting": "[4]", "result": "77 % of control"}
    ]},
    {"molecule": "O=c1[nH]c2nc(Cl)nc(Cl)c2[nH]1", "values": [
      {"measurement": "T/C", "setting": "dose: 25.0 mg/kg/injection, schedule: Q01DX011 (ip), vehicle: carboxymethylcellulose (CMC)", "result": "54 % of control"},
      {"measurement": "T/C", "setting": "dose: 75.0 mg/kg/injection, schedule: Q01DX011 (ip), vehicle: carboxymethylcellulose (CMC)", "result": "117 % of control"},
      {"measurement": "T/C", "setting": "[1]", "result": "92 % of control"}
    ]},
    {"molecule": "CC(C)CCSc1nc(N)nc2nc[nH]c12", "values": [
      {"measurement": "T/C", "setting": "dose: 4.68 mg/kg/injection, schedule: Q01DX011 (ip), vehicle: methylcellulose (MC)", "result": "59 % of control"},
      {"measurement": "T/C", "setting": "dose: 9.37 mg/kg/injection, schedule: Q01DX011 (ip), vehicle: methylcellulose (MC)", "result": "29 % of control"},
      {"measurement": "T/C", "setting": "dose: 18.75 mg/kg/injection, schedule: Q01DX011 (ip), vehicle: methylcellulose (MC)", "result": "21 % of control"},
      {"measurement": "T/C", "setting": "dose: 37.5 mg/kg/injection, schedule: Q01DX011 (ip), vehicle: methylcellulose (MC)", "result": "12 % of control"}
    ]},
    {"molecule": "CS(=O)(=O)OCCC(=O)NCCNC(=O)CCOS(C)(=O)=O", "values": [
      {"measurement": "T/C", "setting": "dose: 6.3 mg/kg/injection, schedule: Q01DX011 (ip), vehicle: saline", "result": "167 % of control"},
      {"measurement": "T/C", "setting": "dose: 10.0 mg/kg/injection, schedule: Q01DX011 (ip), vehicle: saline", "result": "64 % of control"},
      {"measurement": "T/C", "setting": "dose: 20.0 mg/kg/injection, schedule: Q01DX011 (ip), vehicle: saline", "result": "120 % of control"},
      {"measurement": "T/C", "setting": "[5]", "result": "4 % of control"},
      {"measurement": "T/C", "setting": "dose: 25.0 mg/kg/injection, schedule: Q01DX011 (ip), vehicle: saline", "result": "65 % of control"},
      {"measurement": "T/C", "setting": "dose: 30.0 mg/kg/injection, schedule: Q01DX011 (ip), vehicle: saline", "result": "20 % of control"},
      {"measurement": "T/C", "setting": "dose: 40.0 mg/kg/injection, schedule: Q01DX011 (ip), vehicle: saline", "result": "12 % of control"},
      {"measurement": "T/C", "setting": "dose: 50.0 mg/kg/injection, schedule: Q01DX011 (ip), vehicle: saline", "result": "5 % of control and 10 % of control"},
      {"measurement": "T/C", "setting": "dose: 60.0 mg/kg/injection, schedule: Q01DX011 (ip), vehicle: saline", "result": "1 % of control"}
    ]},
    {"molecule": "C[C@]12CCC(=O)C[C@H]1CC[C@@H]1[C@@H]2C(=O)C[C@@]2(C)[C@H]1CC[C@]2(C)O", "values": [
      {"measurement": "T/C", "setting": "dose: 10.0 mg/kg/injection, schedule: Q01DX011 (sc), vehicle: steriod suspending solution", "result": "85 % of control"},
      {"measurement": "T/C", "setting": "dose: 100.0 mg/kg/injection, schedule: Q01DX011 (sc), vehicle: steriod suspending solution", "result": "103 % of control"},
      {"measurement": "T/C", "setting": "dose: 200.0 mg/kg/injection, schedule: Q01DX011 (sc), vehicle: steriod suspending solution", "result": "105 % of control"}
    ]},
    {"molecule": "CCOCCNc1ncnc2c1cnn2C", "values": [
      {"measurement": "T/C", "setting": "dose: 12.5 mg/kg/injection, schedule: Q01DX011 (ip), vehicle: methylcellulose (MC)", "result": "112 % of control"},
      {"measurement": "T/C", "setting": "[5]", "result": "65 % of control"},
      {"measurement": "T/C", "setting": "dose: 50.0 mg/kg/injection, schedule: Q01DX011 (ip), vehicle: methylcellulose (MC)", "result": "38 % of control"},
      {"measurement": "T/C", "setting": "dose: 100.0 mg/kg/injection, schedule: Q01DX011 (ip), vehicle: methylcellulose (MC)", "result": "17 % of control"}
    ]},
    {"molecule": "Cn1c(=O)c2c(nc(COCc3nc4c(c(=O)n(C)c(=O)n4C)n3C)n2C)n(C)c1=O", "values": [
      {"measurement": "T/C", "setting": "[5]", "result": "60 % of control"},
      {"measurement": "T/C", "setting": "dose: 75.0 mg/kg/injection, schedule: Q01DX011 (ip), vehicle: methylcellulose (MC)", "result": "82 % of control"},
      {"measurement": "T/C", "setting": "dose: 225.0 mg/kg/injection, schedule: Q01DX011 (ip), vehicle: methylcellulose (MC)", "result": "33 % of control"}
    ]},
    {"molecule": "Cc1cnc(SCc2ccccc2)nc1N(C)C", "values": [
      {"measurement": "T/C", "setting": "[2]", "result": "57 % of control"},
      {"measurement": "T/C", "setting": "dose: 62.0 mg/kg/injection, schedule: Q01DX011 (ip), vehicle: methylcellulose (MC)", "result": "60 % of control"},
      {"measurement": "T/C", "setting": "[3]", "result": "65 % of control"},
      {"measurement": "T/C", "setting": "[4]", "result": "50 % of control"}
    ]}
  ]
}
